Read-outs that look alike come from different tables or passages of the source.
What was measured:
Assay in all cases: HotSpot kinase profiling
Assay type in all cases: biochemical
CAMK2b = molecular target: T1, CAMK2b (Homo sapiens, UniProt Q13554)
T1 construct: purchased Reaction Biology Corp
Procedure: (§1) The binding assay system for profiling kinase activity were based upon HotSpot technology (Reaction Biology Corp.; Malvern, Pa., USA) and utilized radio-isotope-based P81 filtration. […] Substrates for the various kinases tested against Compound 2 (substrate information available on the Reaction Biology Corp. website) were prepared fresh daily in Reaction Buffer. Any required cofactors were then added to the substrate solution. The identification and selection of the appropriate cofactor for each kinase is within the ability of a person skilled in the art. See, for example, Handbook of Assay Development in Drug Discovery, Ed. Lisa K. Minor, 2006: CRC Press, Boca Raton, Fla.; Gao et al., “A broad activity screen in support of a chemogenomic map for kinase signalling research and drug discovery,” Biochem J. 2013, 451(2): 313-28; and Eglen et al., “Drug discovery and the human kinome: Recent trends,” Pharmacology & Therapeutics 2011, 130(2): 144-156. The kinase was then added to the substrate solution and gently mixed. […] This was followed by incubation at room temperature for 2 h. The reaction was terminated and any unreacted phosphate was washed away using 0.1% phosphoric acid prior to detection utilizing a proprietary technology. […] DMSO was used as the negative control.
(§2) Percent inhibition was expressed as an average where the assay was performed more than once, e.g., in duplicate.

DRAK1/STK17A = molecular target: T2, DRAK1/STK17A (Homo sapiens, UniProt Q9UEE5)
T2 construct: purchased Reaction Biology Corp
T2 sequence (Q9UEE5 1-414): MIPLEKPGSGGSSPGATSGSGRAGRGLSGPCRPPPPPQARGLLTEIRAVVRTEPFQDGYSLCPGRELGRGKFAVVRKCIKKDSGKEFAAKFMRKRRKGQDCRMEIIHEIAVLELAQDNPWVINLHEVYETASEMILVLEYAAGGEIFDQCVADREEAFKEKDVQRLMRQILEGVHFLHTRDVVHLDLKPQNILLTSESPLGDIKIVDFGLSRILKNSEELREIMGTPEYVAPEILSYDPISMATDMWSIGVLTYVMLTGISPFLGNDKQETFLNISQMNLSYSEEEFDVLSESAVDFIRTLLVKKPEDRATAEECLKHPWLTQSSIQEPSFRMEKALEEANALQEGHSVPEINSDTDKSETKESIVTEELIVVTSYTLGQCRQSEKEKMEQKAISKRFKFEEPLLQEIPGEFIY
Procedure: as §1, §2

PIM1 = molecular target: T3, PIM1 (Homo sapiens, UniProt P11309)
T3 construct: purchased Reaction Biology Corp
Procedure: as §1, §2

TXK = molecular target: T4, TXK (Homo sapiens, UniProt P42681)
T4 construct: purchased Reaction Biology Corp
T4 sequence (P42681 1-527): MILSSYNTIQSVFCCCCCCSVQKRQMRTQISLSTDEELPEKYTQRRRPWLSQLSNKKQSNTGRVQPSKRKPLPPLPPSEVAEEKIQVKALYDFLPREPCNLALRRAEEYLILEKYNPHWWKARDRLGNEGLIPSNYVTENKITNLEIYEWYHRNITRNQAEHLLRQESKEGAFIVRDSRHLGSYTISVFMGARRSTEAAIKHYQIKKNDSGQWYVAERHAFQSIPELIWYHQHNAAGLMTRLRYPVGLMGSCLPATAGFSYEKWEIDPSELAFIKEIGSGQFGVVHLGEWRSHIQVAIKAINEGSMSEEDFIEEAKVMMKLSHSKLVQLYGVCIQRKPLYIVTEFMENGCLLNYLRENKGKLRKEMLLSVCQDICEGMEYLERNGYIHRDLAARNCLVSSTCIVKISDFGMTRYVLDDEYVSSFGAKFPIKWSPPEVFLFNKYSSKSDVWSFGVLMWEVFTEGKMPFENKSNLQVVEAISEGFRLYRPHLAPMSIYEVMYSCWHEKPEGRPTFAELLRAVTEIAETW
Procedure: as §1, §2

ULK1 = molecular target: T5, ULK1 (Homo sapiens, UniProt O75385)
T5 construct: purchased Reaction Biology Corp
T5 sequence (O75385 1-1050): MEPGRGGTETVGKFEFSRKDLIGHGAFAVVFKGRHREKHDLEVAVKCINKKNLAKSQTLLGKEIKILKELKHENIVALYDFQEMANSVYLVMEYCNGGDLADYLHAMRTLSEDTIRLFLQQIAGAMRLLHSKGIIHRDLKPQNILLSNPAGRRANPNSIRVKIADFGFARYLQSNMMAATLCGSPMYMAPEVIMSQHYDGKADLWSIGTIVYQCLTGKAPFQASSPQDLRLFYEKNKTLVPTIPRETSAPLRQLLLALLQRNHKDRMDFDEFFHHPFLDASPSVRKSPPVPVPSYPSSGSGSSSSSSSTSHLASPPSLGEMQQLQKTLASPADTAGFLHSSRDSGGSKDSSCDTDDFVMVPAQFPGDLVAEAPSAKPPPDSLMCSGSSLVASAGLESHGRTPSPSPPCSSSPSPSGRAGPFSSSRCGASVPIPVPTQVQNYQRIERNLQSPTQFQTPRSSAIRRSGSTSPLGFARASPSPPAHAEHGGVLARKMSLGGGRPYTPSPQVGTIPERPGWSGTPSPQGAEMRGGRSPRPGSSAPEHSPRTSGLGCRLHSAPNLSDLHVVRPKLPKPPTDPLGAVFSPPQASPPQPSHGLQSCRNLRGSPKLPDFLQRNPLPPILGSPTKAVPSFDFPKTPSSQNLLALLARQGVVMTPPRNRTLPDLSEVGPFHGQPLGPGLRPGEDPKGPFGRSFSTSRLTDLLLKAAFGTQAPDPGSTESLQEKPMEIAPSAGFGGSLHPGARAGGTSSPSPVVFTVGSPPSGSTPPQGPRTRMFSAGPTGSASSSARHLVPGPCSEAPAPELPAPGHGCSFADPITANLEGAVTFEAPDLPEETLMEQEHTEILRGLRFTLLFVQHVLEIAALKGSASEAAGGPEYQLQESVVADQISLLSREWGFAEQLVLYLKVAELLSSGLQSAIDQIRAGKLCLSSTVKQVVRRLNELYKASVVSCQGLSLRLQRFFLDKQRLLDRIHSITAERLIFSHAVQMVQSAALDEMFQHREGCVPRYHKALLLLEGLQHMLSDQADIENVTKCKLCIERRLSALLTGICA
Procedure: as §1, §2

[1] = read-out: % Enzyme Activity (relative to DMSO controls) Run 1
[2] = read-out: % Enzyme Activity (relative to DMSO controls) Run 2

T1 sequence (Q13554 whole entry): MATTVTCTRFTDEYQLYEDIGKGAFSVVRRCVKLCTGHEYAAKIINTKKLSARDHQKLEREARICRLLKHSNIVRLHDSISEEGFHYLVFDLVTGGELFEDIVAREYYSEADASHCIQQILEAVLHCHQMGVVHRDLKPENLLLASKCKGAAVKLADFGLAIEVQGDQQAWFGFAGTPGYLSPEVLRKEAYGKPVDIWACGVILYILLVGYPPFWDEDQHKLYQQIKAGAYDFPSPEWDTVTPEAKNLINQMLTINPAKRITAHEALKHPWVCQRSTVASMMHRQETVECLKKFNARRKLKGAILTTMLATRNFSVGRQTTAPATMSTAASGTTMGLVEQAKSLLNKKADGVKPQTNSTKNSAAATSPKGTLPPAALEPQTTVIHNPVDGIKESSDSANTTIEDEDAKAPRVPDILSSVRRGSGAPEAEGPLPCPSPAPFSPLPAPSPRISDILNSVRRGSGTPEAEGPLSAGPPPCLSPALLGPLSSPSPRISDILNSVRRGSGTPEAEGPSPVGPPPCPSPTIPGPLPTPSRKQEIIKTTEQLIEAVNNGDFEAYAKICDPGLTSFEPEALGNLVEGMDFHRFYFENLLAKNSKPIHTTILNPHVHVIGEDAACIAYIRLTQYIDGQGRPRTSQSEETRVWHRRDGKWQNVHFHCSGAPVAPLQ
T3 sequence (P11309 whole entry): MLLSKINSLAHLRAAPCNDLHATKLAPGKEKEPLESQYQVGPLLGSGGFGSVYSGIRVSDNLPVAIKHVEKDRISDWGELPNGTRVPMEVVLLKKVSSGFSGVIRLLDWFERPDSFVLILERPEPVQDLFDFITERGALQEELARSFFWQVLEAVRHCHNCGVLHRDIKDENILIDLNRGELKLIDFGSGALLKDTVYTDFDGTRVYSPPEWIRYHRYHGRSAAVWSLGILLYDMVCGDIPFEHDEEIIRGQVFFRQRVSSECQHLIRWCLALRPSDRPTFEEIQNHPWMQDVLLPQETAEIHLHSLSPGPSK

C=CC(=O)Nc1cccc(Nc2nc(Nc3ccc(OCCOC)c(F)c3)ncc2F)c1 [Compound 2]
inhibition at 3 µM (CAMK2b): 3.89%
remaining activity at 3 µM (CAMK2b; [1]): 96.4%
remaining activity at 3 µM (CAMK2b; [2]): 95.8%
inhibition at 3 µM (DRAK1/STK17A): 18.2%
remaining activity at 3 µM (DRAK1/STK17A; [1]): 82.9%
remaining activity at 3 µM (DRAK1/STK17A; [2]): 80.6%
inhibition at 3 µM (PIM1): -3.82%
remaining activity at 3 µM (PIM1; [1]): 104%
remaining activity at 3 µM (PIM1; [2]): 104%
inhibition at 3 µM (TXK): 99.8%
remaining activity at 3 µM (TXK; [1]): 0.42%
remaining activity at 3 µM (TXK; [2]): 0.03%
inhibition at 3 µM (ULK1): -0.59%
remaining activity at 3 µM (ULK1; [1]): 100%
remaining activity at 3 µM (ULK1; [2]): 101%

Source: patent US9492471B2, “Methods of treating a disease or disorder associated with Bruton'S Tyrosine Kinase” (Celgene Avilomics Research, Inc., priority 2013, dated 2016)
